Biological target: human APJ receptor (Homo sapiens (Human), UniProt P35414)
Experiment: [35S]GTPγS binding assay on membranes from CHO cells stably expressing human APJ receptor
Format: biochemical
Conditions: read-out: Activity hAPJ SPA EC50 IP
Outline: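 Membranes from CHO cells stably expressing FLAG-tagged human APJ; assay buffer GDP, MgCl2 and NaCl levels optimised beforehand. Incubation 90 min at RT, imager read-out. EC50 from non-linear regression on means of several independent experiments.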

Sequence of human APJ receptor (P35414 whole entry): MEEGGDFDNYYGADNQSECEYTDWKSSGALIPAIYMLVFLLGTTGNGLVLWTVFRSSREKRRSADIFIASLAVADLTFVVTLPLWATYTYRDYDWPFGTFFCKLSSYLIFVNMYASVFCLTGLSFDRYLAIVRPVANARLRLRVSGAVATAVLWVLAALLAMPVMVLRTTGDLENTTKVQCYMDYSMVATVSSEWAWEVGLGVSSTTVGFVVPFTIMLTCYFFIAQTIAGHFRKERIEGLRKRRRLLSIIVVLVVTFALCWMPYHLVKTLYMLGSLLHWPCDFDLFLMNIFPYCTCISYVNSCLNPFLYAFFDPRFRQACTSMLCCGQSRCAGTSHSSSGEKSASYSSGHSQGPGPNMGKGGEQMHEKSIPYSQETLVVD

Row | SMILES | EC50 [nM]
1 | CO[C@H](c1ncc(C)cn1)[C@H](C)S(=O)(=O)Nc1nnc2n1[C@H](COC(C)C)COc1ncccc1-2 (single isomer, unassigned) [Example 64.0, (1R,2S)-N-((R)-5-(isopropoxymethyl)-5,6-dihydropyrido[3,2-f][1,2,4]triazolo[4,3-d][1,4]oxazepin-3-yl)-1-methoxy-1-(5-methylpyrimidin-2-yl)propane-2-sulfonamide or (1R,2S)-N-((S)-5-(isopropoxymethyl)-5,6-dihydropyrido[3,2-f][1,2,4]triazolo[4,3-d][1,4]oxazepin-3-yl)-1-methoxy-1-(5-methylpyrimidin-2-yl)propane-2-sulfonamide] | 640
2 | COC[C@@H]1COc2cccnc2-c2nnc(NS(=O)(=O)[C@@H](C)[C@@H](OC(C)C)c3ncc(C)cn3)n21 (single isomer, unassigned) [Example 69.0, (1S,2S)-N-((5R)-5-(methoxymethyl)-5,6-dihydropyrido[2,3-f][1,2,4]triazolo[4,3-d][1,4]oxazepin-3-yl)-1-(5-methyl-2-pyrimidinyl)-1-(2-propanyloxy)-2-propanesulfonamide or (1S,2S)-N-((5S)-5-(methoxymethyl)-5,6-dihydropyrido[2,3-f][1,2,4]triazolo[4,3-d][1,4]oxazepin-3-yl)-1-(5-methyl-2-pyrimidinyl)-1-(2-propanyloxy)-2-propanesulfonamide] | 230
3 | COc1ccc2c(c1)-c1nnc(NS(=O)(=O)[C@@H](C)[C@@H](OC(C)C)c3ncc(C)cn3)n1C(CO)CO2 (single isomer, unassigned) [Example 150.0, (1S,2S)-N-((5R)-5-(hydroxymethyl)-10-methoxy-5,6-dihydro[1,2,4]triazolo[4,3-d][1,4]benzoxazepin-3-yl)-1-(5-methyl-2-pyrimidinyl)-1-(2-propanyloxy)-2-propanesulfonamide or (1S,2S)-N-((5S)-5-(hydroxymethyl)-10-methoxy-5,6-dihydro[1,2,4]triazolo[4,3-d][1,4]benzoxazepin-3-yl)-1-(5-methyl-2-pyrimidinyl)-1-(2-propanyloxy)-2-propanesulfonamide] | 1880
4 | COC[C@@H]1COc2ccc(F)cc2-c2nnc(NS(=O)(=O)CCc3ncc(C)cn3)n21 (mixture of isomers) [Example 42.0, N-((5R)-10-fluoro-5-(methoxymethyl)-5,6-dihydro[1,2,4]triazolo[4,3-d][1,4]benzoxazepin-3-yl)-2-(5-methyl-2-pyrimidinyl)ethanesulfonamide and N-((5S)-10-fluoro-5-(methoxymethyl)-5,6-dihydro[1,2,4]triazolo[4,3-d][1,4]benzoxazepin-3-yl)-2-(5-methyl-2-pyrimidinyl)ethanesulfonamide] | 4100
5 | COC[C@@H]1COc2cccnc2-c2nnc(NS(=O)(=O)[C@@H](C)[C@@H](OC(C)C)c3ncc(C)cn3)n21 (mixture of isomers) [Example 61.0, (1S,2S)-N-((5R)-5-(methoxymethyl)-5,6-dihydropyrido[2,3-f][1,2,4]triazolo[4,3-d][1,4]oxazepin-3-yl)-1-(5-methyl-2-pyrimidinyl)-1-(2-propanyloxy)-2-propanesulfonamide and (1S,2S)-N-((5S)-5-(methoxymethyl)-5,6-dihydropyrido[2,3-f][1,2,4]triazolo[4,3-d][1,4]oxazepin-3-yl)-1-(5-methyl-2-pyrimidinyl)-1-(2-propanyloxy)-2-propanesulfonamide] | 440
6 | COC[C@@H]1COc2ccc(F)cc2-c2nnc(NS(=O)(=O)[C@@H](C)[C@@H](OC(C)C)c3ncc(C)cn3)n21 (single isomer, unassigned) [Example 26.0, (1S,2S)-N-((5R)-10-fluoro-5-(methoxymethyl)-5,6-dihydro[1,2,4]triazolo[4,3-d][1,4]benzoxazepin-3-yl)-1-(5-methyl-2-pyrimidinyl)-1-(2-propanyloxy)-2-propanesulfonamide or (1S,2S)-N-((5S)-10-fluoro-5-(methoxymethyl)-5,6-dihydro[1,2,4]triazolo[4,3-d][1,4]benzoxazepin-3-yl)-1-(5-methyl-2-pyrimidinyl)-1-(2-propanyloxy)-2-propanesulfonamide] | 460
7 | COC[C@@H]1COc2ccc(F)cc2-c2nnc(NS(=O)(=O)[C@@H](C)[C@H](OC)c3ncc(C)cn3)n21 (single isomer, unassigned) [Example 28.0, (1R,2S)-N-((5R)-10-fluoro-5-(methoxymethyl)-5,6-dihydro[1,2,4]triazolo[4,3-d][1,4]benzoxazepin-3-yl)-1-methoxy-1-(5-methyl-2-pyrimidinyl)-2-propanesulfonamide or (1R,2S)-N-((5S)-10-fluoro-5-(methoxymethyl)-5,6-dihydro[1,2,4]triazolo[4,3-d][1,4]benzoxazepin-3-yl)-1-methoxy-1-(5-methyl-2-pyrimidinyl)-2-propanesulfonamide] | 170
8 | COC[C@@H]1COc2ccccc2-c2nnc(NS(=O)(=O)[C@@H](C)[C@@H](OC(C)C)c3ncc(C)cn3)n21 (single isomer, unassigned) [Example 4.0, (1S,2S)-N-((5R)-5-(methoxymethyl)-5,6-dihydro[1,2,4]triazolo[4,3-d][1,4]benzoxazepin-3-yl)-1-(5-methyl-2-pyrimidinyl)-1-(2-propanyloxy)-2-propanesulfonamide or (1S,2S)-N-((5S)-5-(methoxymethyl)-5,6-dihydro[1,2,4]triazolo[4,3-d][1,4]benzoxazepin-3-yl)-1-(5-methyl-2-pyrimidinyl)-1-(2-propanyloxy)-2-propanesulfonamide] | 17
9 | COC[C@@H]1COc2ccc(OC)nc2-c2nnc(NS(=O)(=O)[C@@H](C)[C@H](C)c3ncc(OC)cn3)n21 (stereo in doubt) [Example 3.0, (2S,3R)-N-((5R)-10-methoxy-5-(methoxymethyl)-5,6-dihydropyrido[2,3-f][1,2,4]triazolo[4,3-d][1,4]oxazepin-3-yl)-3-(5-methoxy-2-pyrimidinyl)-2-butanesulfonamide and (2S,3R)-N-((5S)-10-methoxy-5-(methoxymethyl)-5,6-dihydropyrido[2,3-f][1,2,4]traizolo[4,3-d][1,4]oxazepin-3-yl)-3-(5-methoxy-2-pyrimidinyl)-2-butanesulfonamide] | 490
10 | COC[C@@H]1COc2cnccc2-c2nnc(NS(=O)(=O)[C@@H](C)[C@@H](OC(C)C)c3ncc(C)cn3)n21 (single isomer, unassigned) [Example 66.0, (1S,2S)-N-((5R)-5-(methoxymethyl)-5,6-dihydropyrido[4,3-f][1,2,4]triazolo[4,3-d][1,4]oxazepin-3-yl)-1-(5-methyl-2-pyrimidinyl)-1-(2-propanyloxy)-2-propanesulfonamide or (1S,2S)-N-((5S)-5-(methoxymethyl)-5,6-dihydropyrido[4,3-f][1,2,4]triazolo[4,3-d][1,4]oxazepin-3-yl)-1-(5-methyl-2-pyrimidinyl)-1-(2-propanyloxy)-2-propanesulfonamide] | 760
11 | Cc1cnc([C@H](OC(C)C)[C@H](C)S(=O)(=O)Nc2nnc3n2-c2c(F)cccc2/C=C\C[C@@H]3C)nc1 (single isomer, unassigned) [Example 53.0] | 220
12 | COC[C@@H]1COc2c(OC)cccc2-c2nnc(NS(=O)(=O)[C@@H](C)[C@@H](OC(C)C)c3ncc(C)cn3)n21 (single isomer, unassigned) [Example 39.0, (1S,2S)-N-((5R)-8-methoxy-5-(methoxymethyl)-5,6-dihydro[1,2,4]traizolo[4,3-d][1,4]benzoxazepin-3-yl)-1-(5-methyl-2-pyrimidinyl)-1-(2-propanyloxy)-2-propanesulfonamide or (1S,2S)-N-((5S)-8-methoxy-5-(methoxymethyl)-5,6-dihydro[1,2,4]traizolo[4,3-d][1,4]benzoxazepin-3-yl)-1-(5-methyl-2-pyrimidinyl)-1-(2-propanyloxy)-2-propanesulfonamide] | 8
13 | COC[C@@H]1COc2ncccc2-c2nnc(NS(=O)(=O)[C@@H](C)[C@H](OC(C)C)c3ncc(C)cn3)n21 (mixture of isomers) [Example 59.0, (1R,2S)-N-((5R)-5-(methoxymethyl)-5,6-dihydropyrido[3,2-f][1,2,4]triazolo[4,3-d][1,4]oxazepin-3-yl)-1-(5-methyl-2-pyrimidinyl)-1-(2-propanyloxy)-2-propanesulfonamide and (1R,2S)-N-((5S)-5-(methoxymethyl)-5,6-dihydropyrido[3,2-f][1,2,4]triazolo[4,3-d][1,4]oxazepin-3-yl)-1-(5-methyl-2-pyrimidinyl)-1-(2-propanyloxy)-2-propanesulfonamide] | 1200
14 | COC[C@@H]1COc2ccc(F)cc2-c2nnc(NS(=O)(=O)[C@@H](C)[C@@H](OC(C)C)c3ncc(C)cn3)n21 (mixture of isomers) [Example 23.0, (1S,2S)-N-((5R)-10-fluoro-5-(methoxymethyl)-5,6-dihydro[1,2,4]triazolo[4,3-d][1,4]benzoxazepin-3-yl)-1-(5-methyl-2-pyrimidinyl)-1-(2-propanyloxy)-2-propanesulfonamide and (1S,2S)-N-((5S)-10-fluoro-5-(methoxymethyl)-5,6-dihydro[1,2,4]triazolo[4,3-d][1,4]benzoxazepin-3-yl)-1-(5-methyl-2-pyrimidinyl)-1-(2-propanyloxy)-2-propanesulfonamide] | 37
15 | COC[C@@H]1COc2ccc(OC)nc2-c2nnc(NS(=O)(=O)[C@@H](C)[C@H](C)c3ncc(C)cn3)n21 (single isomer, unassigned) [Example 13.0, (2S,3R)-N-((5R)-10-methoxy-5-(methoxymethyl)-5,6-dihydropyrido[2,3-f][1,2,4]triazolo[4,3-d][1,4]oxazepin-3-yl)-3-(5-methyl-2-pyrimidinyl)-2-butanesulfonamide or (2S,3R)-N-((5S)-10-methoxy-5-(methoxymethyl)-5,6-dihydropyrido[2,3-f][1,2,4]traizolo[4,3-d][1,4]oxazepin-3-yl)-3-(5-methyl-2-pyrimidinyl)-2-butanesulfonamide] | 370
